Measured values taken from patent EP0562480B1, “1-phenyl-5-substituted-1H-1, 2,4-triazole-3-carboxamide derivates, process for preparation of the same, and fungicidal composition comprising the same” (KUREHA CHEMICAL INDUSTRY CO., LTD., priority 1992, dated 1993).

System: Botrytis cinerea
Test: Test for controlling effect against cucumber gray mold
Assay type: in vivo, Botrytis cinerea on cucumber
Settings: 500 ppm wettable powder spray, 5 ml per pot; cucumber first leaf stage; lesion areas three days after inoculation

Row | SMILES | Inhibition rate (%) at concentration of 500 ppm Cucumber gray mold [%]
1 | CCCCOC(c1cccc(-n2nc(C(N)=O)nc2C2CCCCC2)c1)C(C)C (centres unmarked) [Compound 5, 1-[3-[(1-butoxy-2-methyl)propyl]phenyl]-5-cyclohexyl-1H-1,2,4-triazole-3-carboxamide] | 82
2 | CCCCOC(c1cccc(-n2nc(C(N)=O)nc2Cc2ccccc2)c1)C(C)C (centres unmarked) [Compound 6, 1-[3-[(1-butoxy-2-methyl)propyl]phenyl]-5-(phenylmethyl)-1H-1,2,4-triazole-3-carboxamide] | 80
